Assay results taken from publication PMC4467139, “Garcinol sensitizes human head and neck carcinoma to cisplatin in a xenograft mouse model despite downregulation of proliferative biomarkers” (Oncotarget, 2015).
Like-named read-outs stand apart in the source and are kept apart here. Peptide text beside a SMILES is read from it. * marks the point of attachment. Cbz = O=C(OCc1ccccc1)*; CH2F = FC*

What was measured:
[1] = tested on: PARP cleavage in CAL27 cells; experiment: Western blot of PARP cleavage; assay type: cell-based, human; conditions: Z-VAD-fmk 20 μM together with 15 μM garcinol and 5 μM cisplatin, 48 h
Description: Vehicle or drug-treated whole-cell extracts were lysed in lysis buffer [250 mM NaCl, 20 mM HEPES, 2 mM EDTA (pH 8.0), 0.5 mM EGTA, 0.1% Triton X-100, 1.5 μg/mL aprotinin, 1.5 μg/mL leupeptin, 1 mM phenylmethylsulfonylfluoride (PMSF), and 1.5 mM NaVO4]. Lysates were then spun at 13,300 rpm for 10 min to remove insoluble material and resolved on a 10% SDS gel. After electrophoresis, the proteins were electrotransferred to a nitrocellulose membrane (Bio-Rad), blocked with Blocking One (Nacalai Tesque, Inc.), and probed with antibodies of interest overnight at 4 °C. The blot was washed with TBS with 0.1% Tween-20, exposed to HRP-conjugated secondary antibodies for 1 h, and finally examined by chemiluminescence using Western Bright Sirius HRP substrate (Advansta).
Supplementary Figure 2: Z-VAD-fmk abrogates the garcinol-induced caspase-3 activation. CAL27 cells (5 × 10^5 cells/mL) were treated with 15 μM garcinol and/or 5 μM cisplatin for 48 h in the absence or presence of 20 μM Z-VAD-fmk, whole-cell extracts were prepared, separated by SDS-PAGE, and subjected to western blot against PARP antibody. The same blot was stripped and reprobed with β-actin antibody to verify equal protein loading.
(also on this page, place not known: www.impactjournals.com/oncotarget/ Oncotarget, Materials 2014 Supplementary Z-V AD-fmk 10 5 Z-V AD-fmk,) […]

CAL27 xenografts = experiment: HNSCC xenograft mouse model, tumor volume; assay type: in vivo, athymic nu/nu female mice; conditions: 4 weeks, garcinol 0.5 mg/kg i.p. five times/week, cisplatin 2 mg/kg i.p. twice weekly
Description: (§1) All procedures involving animals were reviewed and approved by NUS Institutional Animal Care and Use Committee. Six-week old athymic nu/nu female mice (Animal Resource Centre, Australia) were implanted subcutaneously in the right flank with CAL27 cells (3 × 10^6 cells/100 μL saline). When tumors have reached 0.25 cm in diameter, the mice were randomized into the following treatment groups (n = 5/group): (I) untreated control (0.1% DMSO, 100 μL daily); (II) garcinol (0.5 mg/kg body weight, suspended in 0.1% DMSO, intraperitoneal [i.p.] injection, five times/week); (III) cisplatin alone (2 mg/kg body weight, suspended in 0.1% DMSO, i.p. injection, twice/week); and (IV) combination (garcinol, 0.5 mg/kg body weight, i.p. injection, five times/week and cisplatin, 2 mg/kg body weight, i.p. injection, twice/week). Therapy was continued for 4 weeks, and the animals were euthanized 24 h after the last dose. Primary tumors were excised and the final tumor volume was calculated using the formula V = L × (W)^2/2 where L is the length and W is the width. Half of the tumor tissue was fixed in formalin and embedded in paraffin for immunohistochemistry (IHC) analysis. The other half was snap frozen in liquid nitrogen and stored at −80°C.

[2] = tested on: NF-κB-dependent reporter gene expression in MDA686Tu cells; experiment: NF-κB luciferase reporter assay; assay type: cell-based, human; conditions: 12 h
Description: MDA686Tu cells (1 × 10^4 cells/well) in 96-well were transfected of plasmid with NF-κB responsive […] elements linked to a luciferase reporter gene using lipofectamine® 2000. After transfection for 48 h, indicated concentrations of garcinol were added into the wells for 12 h. Luciferase activity was determined using Bright-Glo™ luciferase assay kit from Promega.

[3] = Pharmacokinetics study of garcinol in mice; assay type: in vivo; conditions: nude, ip, mouse serum; for AUC: read-out: area under the serum concentration-time curve (AUC) at 8 h; for Cmax: read-out: peak serum concentration (Cmax); for Tmax: read-out: time of peak serum concentration post-dose
Description: Pharmacokinetics of garcinol was conducted in nude mice by i.p. injection at dose of 0.5 mg/kg or 2 mg/kg. The mice were allowed food and water ad libitum before pharmacokinetics experiment. About 150 μL of blood was taken from facial vein of mice at 10 min, 30 min, 1, 2, 4, 6, and 8 h post-dose. After centrifugation of blood samples at 14,000 rpm at 4°C for 10 min, mouse sera (the supernatant) were transferred into Eppendorf tube. 10 μL of each serum was processed by adding 3-folds excess of acetonitrile-containing isogarcinol, the internal standard followed by vortexing for 1 min. The tube was then centrifuged at 14,000 rpm at 4°C for 10 min. Then 30 μL of the supernatants were transferred into glass inserts (250 μL) with 70 μL of 10 mM ammonia acetate solution. 50 μL of processed serum samples were injected into LC-MS/MS which was carried out under negative electrospray ionization (ESI) and multiple reaction monitoring (MRM) mode. […] The daughter ion monitored for garcinol and isogarcinol was 409 and 335, respectively. SCIEX Analyst software (version 1.4.2) was used for data acquisition and analysis.

CAL27 cells = experiment: MTT cell viability assay; assay type: cell-based; conditions: Homo sapiens, CAL-27, CAL27, 72 h
Description: The inhibitory effect of garcinol against HNSCC cell growth was determined by the MTT dye uptake method as described previously. Briefly, the cells (5 × 10^4 cells/mL) were incubated in triplicate in a 96-well plate in the presence or absence of different concentrations of garcinol in a final volume of 0.2 mL for indicated time intervals at 37 °C. Thereafter, 20 μL MTT solution (5 mg/mL in PBS) was added to each well. After a 2 h incubation at 37°C, 0.1 mL lysis buffer (20% SDS, 50% dimethylformamide) was added after removal of the medium, incubation was continued at 37°C for 1 h, and then the optical density (OD) at 570 nm was measured by the Safire2™ microplate reader (Tecan). […]
www.impactjournals.com/oncotarget/ Oncotarget, Supplementary Materials 2015 […]
Supplementary Figure 1: (A) Garcinol augments the cytotoxic effect of cisplatin in HNSCC cells. CAL27 cells (1 × 10^4 cells/well) were exposed for 48 h to different concentrations of garcinol and cisplatin, and their combination and then subjected to MTT assay to analyze the viability of tumor cells. (B) Assessment on the type of combination relationship was done using the method developed by Chou-Talalay multiple drug effect equation. The degree of synergy was assessed based on CI values, where CI values of > 1.0 implies antagonism, 1.0 implies additive and < 1.0 implies synergistic effect relationships. […]

UMSCC1 cells = experiment: MTT cell viability assay; assay type: cell-based; conditions: Homo sapiens, UMSCC1, 72 h
Description: (§2) The inhibitory effect of garcinol against HNSCC cell growth was determined by the MTT dye uptake method as described previously. Briefly, the cells (5 × 10^4 cells/mL) were incubated in triplicate in a 96-well plate in the presence or absence of different concentrations of garcinol in a final volume of 0.2 mL for indicated time intervals at 37 °C. Thereafter, 20 μL MTT solution (5 mg/mL in PBS) was added to each well. After a 2 h incubation at 37°C, 0.1 mL lysis buffer (20% SDS, 50% dimethylformamide) was added after removal of the medium, incubation was continued at 37°C for 1 h, and then the optical density (OD) at 570 nm was measured by the Safire2™ microplate reader (Tecan).

MDA686LN cells = experiment: MTT cell viability assay; assay type: cell-based; conditions: Homo sapiens, 72 h
Description: as §2

[4] = Body weight during xenograft experiment; assay type: in vivo, athymic nu/nu female mice; conditions: four week treatment; garcinol 0.5 mg/kg i.p. five times/week, alone or with cisplatin 2 mg/kg i.p. twice weekly
Description: as §1

AUC ([3]; 0.5 mg/kg i.p.) [µM·h]	Cmax ([3]; 0.5 mg/kg i.p.) [µM]	Tmax ([3]; 0.5 mg/kg i.p.) [min]	AUC ([3]; 2 mg/kg i.p.) [µM·h]	Cmax ([3]; 2 mg/kg i.p.) [µM]	Tmax ([3]; 2 mg/kg i.p.) [min]	Compound	effect on increased PARP cleavage [1]	reduction of tumor volume (CAL27 xenografts) [%]	NF-κB-dependent reporter gene expression [2]	IC50 (CAL27 cells) [µM]	IC50 (UMSCC1 cells) [µM]	IC50 (MDA686LN cells) [µM]	body weight of the animals [4]
						COC(=O)C[C@H](NC(=O)[C@H](C)NC(=O)[C@@H](NC(=O)OCc1ccccc1)C(C)C)C(=O)CF [Z-VAD-fmk] (Cbz-Val-Ala-Asp(OMe)-CH2F)	completely blocked						
						N.N.[Cl][Pt][Cl] [cisplatin, cis-dichloro-diammineplatinum (II)]		50					
4.3	1.83	30	16.9	6.64	30	C=C(C)[C@@H](CC=C(C)C)C[C@@]12C[C@@H](CC=C(C)C)C(C)(C)[C@@](CC=C(C)C)(C(=O)C(C(=O)c3ccc(O)c(O)c3)=C1O)C2=O [garcinol]		50	significantly abrogate	14.7	11.6	13.8	no significant loss of body weight
